Assay results published in BindingDB's records for patent US20240246984 (Beijing Innocare Pharma Tech, 2024).

Columns and labels:
[1] = target: Tyrosine-protein kinase JAK2 (Homo sapiens, UniProt O60674); assay: JAK2 Activity Inhibition Assay
Procedure: The enzymatic activity of JAK2 was assessed by detecting the substrate phosphorylation level in a kinase reaction with a homogeneous time-resolved fluorescence (HTRF) kinase detection kit (Cisbio, 62TK0PEC). A reaction buffer contained an enzyme buffer (1×), 5 mM MgCl2, 1 mM DTT and 0.01% Brij35 from the kit; a human recombinant JAK2 protein (Carna Biosciences, 08-045) was diluted to a kinase reaction solution of 0.15 ng/μL with the reaction buffer; a substrate reaction solution contained 2.5 μM ATP and a biotin-labeled tyrosine kinase substrate diluted to 0.25 μM with the reaction buffer; a detection buffer contained 0.1 ng/μL Eu3+ labeled cage antibody (Cisbio, 61T66KLB) and 12.5 nM streptavidin-labeled XL665 (Cisbio, 610SAXLB) in the reaction buffer; the compound was dissolved to 10 μM in DMSO, followed by a serial 4-fold dilution with DMSO to a minimum concentration of 0.061 nM. Each concentration was further diluted 40-fold with the reaction buffer. To a 384-well assay plate (Corning, 3674) were added 4 μL of the compound solutions having a series of concentrations and 2 μL of JAK2 kinase reaction solutions. […] An Envision plate reader (Perkin Elmer) was then used to measure the progress of the reaction at wavelengths of 620 nm and 665 nm.

[2] = target: Non-receptor tyrosine-protein kinase TYK2 (Homo sapiens, UniProt P29597); assay: TYK2 Activity Inhibition Assay
Chain of Non-receptor tyrosine-protein kinase TYK2 (P29597 whole entry): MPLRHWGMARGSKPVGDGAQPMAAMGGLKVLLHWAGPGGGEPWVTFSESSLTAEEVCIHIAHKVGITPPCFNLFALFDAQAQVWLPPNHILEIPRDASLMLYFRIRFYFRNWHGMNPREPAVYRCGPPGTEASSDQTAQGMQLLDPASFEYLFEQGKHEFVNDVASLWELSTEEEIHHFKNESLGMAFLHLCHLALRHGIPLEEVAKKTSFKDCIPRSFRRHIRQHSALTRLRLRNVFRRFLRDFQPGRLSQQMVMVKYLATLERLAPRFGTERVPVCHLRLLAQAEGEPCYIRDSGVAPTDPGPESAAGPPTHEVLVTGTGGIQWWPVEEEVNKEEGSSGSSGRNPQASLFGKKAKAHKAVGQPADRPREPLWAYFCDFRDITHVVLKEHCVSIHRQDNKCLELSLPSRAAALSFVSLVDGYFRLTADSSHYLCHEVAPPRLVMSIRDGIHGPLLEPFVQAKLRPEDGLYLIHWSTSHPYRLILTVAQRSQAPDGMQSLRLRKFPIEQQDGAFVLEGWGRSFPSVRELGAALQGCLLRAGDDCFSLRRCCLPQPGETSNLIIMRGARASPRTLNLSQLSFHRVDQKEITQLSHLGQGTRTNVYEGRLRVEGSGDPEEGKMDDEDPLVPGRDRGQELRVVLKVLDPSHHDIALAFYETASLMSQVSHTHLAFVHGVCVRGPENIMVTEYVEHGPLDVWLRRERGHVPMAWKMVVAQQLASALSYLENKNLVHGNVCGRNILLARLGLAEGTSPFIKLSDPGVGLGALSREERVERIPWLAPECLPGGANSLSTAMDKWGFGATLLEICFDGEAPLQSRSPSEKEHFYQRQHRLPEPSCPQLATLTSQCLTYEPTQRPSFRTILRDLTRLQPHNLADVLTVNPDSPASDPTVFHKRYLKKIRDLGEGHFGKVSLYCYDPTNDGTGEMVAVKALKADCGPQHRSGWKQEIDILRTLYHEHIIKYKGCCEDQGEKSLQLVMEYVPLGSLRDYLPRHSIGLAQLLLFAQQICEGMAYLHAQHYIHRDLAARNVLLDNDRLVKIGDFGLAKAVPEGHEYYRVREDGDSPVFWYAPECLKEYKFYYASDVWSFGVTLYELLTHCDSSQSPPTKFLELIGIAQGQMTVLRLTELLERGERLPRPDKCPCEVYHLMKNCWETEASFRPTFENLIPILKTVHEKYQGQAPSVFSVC
Procedure: The enzymatic activity of TYK2 was assessed by detecting the substrate phosphorylation level in a kinase reaction with a homogeneous time-resolved fluorescence (HTRF) kinase detection kit (Cisbio, 62TK0PEC). A reaction buffer contained an enzyme buffer (1×), 5 mM MgCl2, 1 mM DTT and 0.01% Brij35 from the kit; a human recombinant TYK2 protein (Carna Biosciences, 08-147) was diluted to a kinase reaction solution of 0.25 ng/μL with the reaction buffer; a substrate reaction solution contained 11.25 μM ATP and a biotin-labeled tyrosine kinase substrate diluted to 0.5 μM with the reaction buffer; a detection buffer contained 0.1 ng/μL Eu3+ labeled cage antibody (Cisbio, 61T66KLB) and 25 nM streptavidin-labeled XL665 (Cisbio, 610SAXLB) in the reaction buffer; the compound was dissolved to 10 μM in DMSO, followed by a serial 4-fold dilution with DMSO to a minimum concentration of 0.061 nM. Each concentration was further diluted 40-fold with the reaction buffer. To a 384-well assay plate (Corning, 3674) were added 4 μL of the compound solutions having a series of concentrations and 2 μL of kinase reaction solutions. After being mixed evenly, the mixtures were incubated at room temperature for 15 minutes, and then 4 μL of the substrate reaction solutions were added.

Chain of Tyrosine-protein kinase JAK2 (O60674 whole entry): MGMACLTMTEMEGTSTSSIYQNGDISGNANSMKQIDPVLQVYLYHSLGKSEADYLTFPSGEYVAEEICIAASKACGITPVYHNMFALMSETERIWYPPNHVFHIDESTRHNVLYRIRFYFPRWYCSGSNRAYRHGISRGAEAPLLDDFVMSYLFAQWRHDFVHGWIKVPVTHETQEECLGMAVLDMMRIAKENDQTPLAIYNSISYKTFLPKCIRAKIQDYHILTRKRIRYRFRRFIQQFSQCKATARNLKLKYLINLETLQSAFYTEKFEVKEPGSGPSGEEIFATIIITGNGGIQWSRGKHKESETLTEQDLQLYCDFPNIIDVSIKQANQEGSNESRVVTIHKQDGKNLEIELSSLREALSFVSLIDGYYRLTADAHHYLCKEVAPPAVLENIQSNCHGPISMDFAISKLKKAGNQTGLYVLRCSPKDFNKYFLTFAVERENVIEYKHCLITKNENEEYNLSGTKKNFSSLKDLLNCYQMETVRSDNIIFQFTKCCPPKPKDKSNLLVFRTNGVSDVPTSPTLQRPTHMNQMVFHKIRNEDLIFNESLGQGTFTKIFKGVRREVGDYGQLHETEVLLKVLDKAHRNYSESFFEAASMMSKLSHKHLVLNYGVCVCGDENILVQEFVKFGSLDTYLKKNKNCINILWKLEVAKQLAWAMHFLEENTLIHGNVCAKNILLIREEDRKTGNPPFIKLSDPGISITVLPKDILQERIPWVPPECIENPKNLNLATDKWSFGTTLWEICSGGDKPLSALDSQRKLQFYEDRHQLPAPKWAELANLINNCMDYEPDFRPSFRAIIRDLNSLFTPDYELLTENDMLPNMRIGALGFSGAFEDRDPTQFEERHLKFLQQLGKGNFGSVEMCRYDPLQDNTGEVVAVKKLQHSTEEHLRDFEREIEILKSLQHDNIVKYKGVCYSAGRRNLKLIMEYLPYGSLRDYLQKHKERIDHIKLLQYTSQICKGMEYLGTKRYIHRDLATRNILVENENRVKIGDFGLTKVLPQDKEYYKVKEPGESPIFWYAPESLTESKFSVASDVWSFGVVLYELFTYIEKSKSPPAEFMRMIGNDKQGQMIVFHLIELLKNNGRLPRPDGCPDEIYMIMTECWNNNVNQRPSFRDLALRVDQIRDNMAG

IC50 [1]: 1.9 nM
IC50 [2]: 0.2 nM
SMILES: O=C1NCCn2c(-c3c(F)cccc3F)nc(Nc3ccc(C(=O)N4CCOCC4)cc3)c21 [US20240246984, Compound 2.]
